Measured values reported in patent publication US5688913A, “CS-1 peptidomimetics, compositions and methods of using the same” (Cytel Corporation, priority 1995, dated 1997).
Peptide text beside a SMILES is read from it.

Experiments:
VLA-4 = VLA-4 (Homo sapiens, UniProt P05556+P13612); assay: cell-based; assay type: cell-based; design: host or cells: Jurkat (human T lymphoblastic line)
Procedure, shortened: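 51Cr-labelled Jurkat cells (human T lymphoblastic) were preincubated 30 min at about 22 °C with peptide, then allowed to bind 30 min at 37 °C to wells coated with CS-1 peptide or CS-1-OVA. After washing, bound cells were lysed with SDS and counted. IC50 is the peptide concentration halving binding, normalized to plate controls.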

Jurkat T cell line = assay: Jurkat cell binding to frozen human RA synovial sections; assay type: cell-based; conditions: 10-mer at 500 μg/ml; inhibitor peptide at its IC50 value
Experimental: Binding studies were carried out using the Jurkat T cell line and frozen RA synovial sections. […] Stimulated MOLT-4 cells behaved similarly.

Chain of VLA-4 (P13612 34-1032): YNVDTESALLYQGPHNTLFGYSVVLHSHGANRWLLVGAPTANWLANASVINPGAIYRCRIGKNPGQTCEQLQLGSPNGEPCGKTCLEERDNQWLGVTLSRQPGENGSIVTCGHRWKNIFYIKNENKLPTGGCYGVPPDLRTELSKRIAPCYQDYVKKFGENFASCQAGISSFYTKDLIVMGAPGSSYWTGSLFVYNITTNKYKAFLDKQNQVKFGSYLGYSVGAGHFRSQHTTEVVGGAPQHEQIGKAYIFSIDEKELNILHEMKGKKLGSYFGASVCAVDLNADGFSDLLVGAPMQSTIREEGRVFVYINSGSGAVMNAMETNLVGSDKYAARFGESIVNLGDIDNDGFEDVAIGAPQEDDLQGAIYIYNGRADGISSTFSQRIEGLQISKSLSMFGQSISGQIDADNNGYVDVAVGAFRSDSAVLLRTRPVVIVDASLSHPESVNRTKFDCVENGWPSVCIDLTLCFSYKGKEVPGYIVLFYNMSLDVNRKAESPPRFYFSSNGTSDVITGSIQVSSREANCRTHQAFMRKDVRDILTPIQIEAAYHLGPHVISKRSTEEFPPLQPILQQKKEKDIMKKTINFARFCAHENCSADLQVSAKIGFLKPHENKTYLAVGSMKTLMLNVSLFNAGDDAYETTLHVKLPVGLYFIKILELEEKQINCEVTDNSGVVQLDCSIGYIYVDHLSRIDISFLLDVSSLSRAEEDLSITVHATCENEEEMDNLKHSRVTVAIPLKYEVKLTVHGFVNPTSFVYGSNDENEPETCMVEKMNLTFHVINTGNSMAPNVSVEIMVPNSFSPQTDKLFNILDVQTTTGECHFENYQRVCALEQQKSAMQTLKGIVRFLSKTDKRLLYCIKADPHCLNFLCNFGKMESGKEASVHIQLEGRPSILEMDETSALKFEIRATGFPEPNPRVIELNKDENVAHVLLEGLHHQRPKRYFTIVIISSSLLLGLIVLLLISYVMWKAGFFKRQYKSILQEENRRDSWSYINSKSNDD
Chain of VLA-4 (P05556 21-798): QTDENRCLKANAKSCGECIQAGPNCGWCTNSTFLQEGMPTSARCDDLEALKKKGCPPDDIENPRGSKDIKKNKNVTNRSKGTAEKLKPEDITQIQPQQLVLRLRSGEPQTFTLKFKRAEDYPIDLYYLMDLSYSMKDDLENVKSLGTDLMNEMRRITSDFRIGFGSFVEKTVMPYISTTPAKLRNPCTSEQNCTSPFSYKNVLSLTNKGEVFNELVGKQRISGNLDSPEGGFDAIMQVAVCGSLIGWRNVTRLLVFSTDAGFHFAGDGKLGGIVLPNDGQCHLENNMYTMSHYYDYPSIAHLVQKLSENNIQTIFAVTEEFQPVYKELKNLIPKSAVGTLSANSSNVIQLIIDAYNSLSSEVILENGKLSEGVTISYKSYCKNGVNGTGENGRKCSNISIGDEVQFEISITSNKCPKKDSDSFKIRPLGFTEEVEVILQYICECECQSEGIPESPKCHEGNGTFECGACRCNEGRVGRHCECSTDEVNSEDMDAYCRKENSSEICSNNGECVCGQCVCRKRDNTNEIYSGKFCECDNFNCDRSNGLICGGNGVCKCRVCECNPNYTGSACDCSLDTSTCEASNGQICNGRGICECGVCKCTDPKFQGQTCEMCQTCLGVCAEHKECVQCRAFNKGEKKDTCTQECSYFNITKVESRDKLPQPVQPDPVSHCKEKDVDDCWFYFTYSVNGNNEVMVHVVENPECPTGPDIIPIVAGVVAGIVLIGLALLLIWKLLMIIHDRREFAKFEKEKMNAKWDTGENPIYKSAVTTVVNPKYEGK

RELATIVE POTENCY (relative peptide inhibition of VLA-4 binding CS-1) (VLA-4): 1
Structure (SMILES): CC[C@H](C)[C@H](NC(=O)[C@H](CCC(=O)O)NC(=O)[C@@H]1CCCN1C(=O)CN)C(=O)N[C@@H](CC(C)C)C(=O)N[C@@H](CC(=O)O)C(=O)N[C@H](C(=O)N1CCC[C@H]1C(=O)N[C@@H](CO)C(=O)N[C@H](C(=O)O)[C@@H](C)O)C(C)C [G P E I L D V P S T free amine free acid, GPEILDVPST, reference compound] (H-GPEILDVPST-OH)
inhibition of Jurkat cell adhesion to RA synovial sections (Jurkat T cell line): could be inhibited
